Here are results for one compound from patent US20030165475A1, “Non-lethal methods for conditioning a recipient for bone marrow transplantation” (priority 1993, published 2003).

Structures are written as SMILES. Several values for one entry are separate records, joined by “and”; a condition that tells them apart may be missing. Equal entries are not always repeated.

In one data set the test system is baboon. To be noted: CyP day -3, -2, -1 + 9.5 Gy TLI day 0.
In a further data set the test system is NOD mice. Nature of the data set: Partial conditioning for HSC chimerism in NOD mice. Type of data set: in vivo, mouse. The source says:
Often, higher doses of donor cells are required for engraftment as well as higher doses of conditioning to make space. […] One of the goals of the present studies was to identify a strategy to overcome the alloresistance to chimerism in NOD mice by further reducing the irradiation dose for conditioning.
The animals were transplanted with 55×10^6 or 60×10^6 B10.BR/SgnSnJ bone marrow cells, respectively.

Data set [1] relates to B10 mice. It counts as in vivo, mouse. As for the experimental part:
Briefly, peripheral blood was collected into heparinized plastic serum vials. […] (400g×20 minutes). […] Lymphocytes were stained for class I antigens with anti-H-2^b-FITC (Pharmingen; San Diego, Calif.), anti-H-2^k-FITC (Pharmingen), and anti-H-2^d-FITC (Pharmingen) monoclonal antibodies (Mab) for 45 minutes at 4° C. Lineage typing was performed by two color flow cytometry using anti-B-cell (B220-FITC, Pharmingen), anti-T cell (αβ-TCR-PE, CD4-FITC, CD8-PE, Pharmingen), anti-natural killer cell (NK1.1-PE, Pharmingen), anti-granulocyte (GR-1-FITC, Pharmingen), and anti-monocyte/macrophage (MAC-1-FITC, Boehringer Mannheim; Indianapolis, Id.) Mab. […] Analyses were performed using forward and side scatter characteristics for the lymphoid and myeloid gates.
To examine whether ALG would enhance the engraftment of allogeneic bone marrow in the established radiation-based model, recipient B10 mice received one of three conditioning approaches prior to transplantation with 40×10^6 or 15×10^6 BALB/c bone marrow cells: 70 mg/kg i.v. ALG given three,days prior to bone marrow transplantation (Group 1); 5Gy of TBI on the day of transplantation (Group 2); or both ALG and TBI as administered in groups 1 and 2 (Group 3). The timing of ALG was chosen to assure maximum immunosuppression at the time of allogeneic bone marrow infusion (Wood et al., 1971, Trans Proc 3(l):676). As in previous analysis, recipients were peripheral blood leukocyte (PBL)-typed for evidence of allogeneic engraftment 2 months following bone marrow transplantation.
To examine the influence of donor cell number on the ability of ALG and TBI to enhance alloengraftment, dose-titration studies were performed in which the above established radiation plus ALG conditioning were utilized. Recipients were conditioned as above prior to receiving 40×10^6, 15×10^6, or 5×10^6 BALB/c bone marrow cells.
Animals were PBL typed 2 months following reconstitution.
To examine the influence of timing of radiation on the engraftment of allogeneic bone marrow, recipient B10 mice were irradiated with 5Gy TBI one week prior to transplantation with 40×10^6 BALB/c allogeneic bone marrow cells.
B10 mice were treated with ALG at 2 mg/mouse i.v. at day −3 before bone marrow transplantation.

In another data set the test system is baboons. As for the experimental part:
In addition-to TBI, TLI was also tested in conditioning recipients for bone marrow transplantation. As a single dose, TLI was simply a modified form of TBI in that the method of delivery was the same, except that only certain parts of the recipient's body was exposed to the irradiation. […] In the following study, baboons were treated with a single dose of 7.5 Gy of TLI at day 0 followed by transfer of allogeneic baboon bone marrow cells with at least one MHC disparity. […] Xenogeneic transplantation with human cells was also performed in baboons conditioned with TLI.

Data set [2] relates to B10 mice. The data set is described as follows: Glucose phosphate isomerase-1 (GPI-1) typing of platelets and erythrocytes in mixed allogeneic chimeras. Type of data set: in vivo, mouse. To be noted: 5 Gy TBI-based regimen, individual animals, 2 months. How it is done: Peripheral blood (0.9 ml) was collected into heparinized microcentrifuge vials. The blood was spun for four seconds at the maximal setting (14,000 rpm) of an Eppendorf microcentrifuge (Beckman #5415). This setting was chosen through an optimization strategy in which force and times were varied as a function of retrieved platelet number. This duration included the acceleration phase, which is incomplete when power is curtailed at the four second mark. After this, the samples were allowed to slow to a halt without braking. Platelet-rich plasma was then carefully aspirated with a disposable polyethylene pipette, avoiding any disturbance of the buffy coat. Triplicate platelet counts were obtained using a Coulter Model ZB1 counter (Hialeah, Fla.), and the average (variation 5%) calculated. […]
Typing of red blood cell (RBC) and platelet phenotypes was performed using the GPI-1 assay (Ildstad, et al., 1991, J Exp Med 174:467). The precipitation pattern for BALB/c mouse and B10 mouse were performed as controls and determined to be totally disparate. […] Percentages were determined by comparison with the positive control. […] In titrations performed to determine the sensitivity of this assay, as low as 2% of BALB/c RBC titrated into normal B10RBC could be reliably detected (Ildstad, et al., 1991, J Exp Med 174:467). […]

[3] abbreviates: 600 cGy TBI + CyP 50 mg/kg i.p. two days after BMT, 60 × 10^6 B10.BR cells.

With `O=P1(N(CCCl)CCCl)NCCCO1` (stereo not shown) [CyP, cyclophosphamide], the GVHD / morbidity result in the data set on baboon is reported as “no GVHD or significant morbidity”. Also, the “chimerism, human cells” value with baboon (two months after transplantation) came out at 15%. In addition, the “ANIMALS WITH ENGRAFTMENT” value with NOD mice (600 cGy TBI + 100 μg mAb i.v. day 5, 3, 1 prior, or + 200 mg/kg CyP i.p. two days after, 55 or 60 × 10^6 B10.BR cells) was 4/4. In addition, in the data set on NOD mice (setting [3]), the donor chimerism was 91.5% and the engraftment turned out to be 100%. The animals engrafted in the data set on NOD mice (600 cGy TBI + single dose CyP 200 mg/kg) stood at 100%. Besides, the “engraftment of allogeneic bone marrow” value in the data set on B10 mice [1] (5Gy TBI + CyP 200 mg/kg i.p. 2 days later, 40 × 10^6 B10.BR or BALB/c → B10, 2 months) is reported as “nearly all recipients”. The “degree of donor chimerism” value in the data set on B10 mice [1] (5Gy TBI + CyP 200 mg/kg i.p. 2 days later, all chimeras) is recorded as above 90%. Also, in the data set with B10 mice [1] (5Gy TBI and CyP, regardless of donor strain or CyP before or shortly after TBI (n=15)), the recipient mice engrafted was around 75%. In addition, in the data set on B10 mice [1] (5 Gy TBI-based regimen, BALB/c → B10, individual animals, flow cytometry, 2 months), the “% BALB/c lymphoid cells” value was 99% and 98% and 91% and 92%. Also, in the data set on B10 mice [1] (CyP 200 mg/kg i.p. alone, no TBI), the engraftment entry is listed as “failed to engraft”. In the data set on B10 mice [1] (chimeras after 5Gy TBI and CyP), this compound displayed an allogeneic donor chimerism of at least 90%. Also, the “treated animals with stable donor cell engraftment” value in the data set with baboons (7.5 Gy TLI + single dose CyP 50 mg/kg at day +2) was “about 50%”. Moreover, in the data set on baboons (7.5 Gy TLI + two doses of CyP), the “duration of stable engraftment” value is at least 36 weeks. In the data set with B10 mice [2], the “% BALB/c RBC” value came out at 100%; the “% BALB/c platelets” value is 71% and 78% and 69% and 31%.
